Like-named read-outs stand apart in the source and are kept apart here. Where only a bound is given, the exact number is not on record here.

Results on five molecules are retold here after patent US20150141375A1 (priority 2009, published 2015).

The subject of data set [1] is Adenovirus. The following applies: literature values; cited from earlier work.
Data set [2] deals with HSV-2. Kind of data set: In vitro efficacy against HSV-2 strains in HFF (CPE, plaque reduction). Type of data set: cell-based. The text has this:
In vitro screening by CPE assay in human foreskin fibroblast (HFF) cells with confirmation using plaque reduction assays in HFF.

Data set [3] has as its system HSV-2, strain MS. As to the kind of experiment: Mortality of BALB/c mice infected intranasally with HSV-2, strain MS. It counts as in vivo. The procedure:
Animals: BALB/c, female mice, 3-4 weeks of age.
Treatments were administered to mice for 7 consecutive days beginning 72 hr post viral inoculation by oral gavage using a 0.2 ml volume. CMX001 was administered once daily and ACV was given twice daily at approximately 12 hr intervals.
Mortality rates analyzed by Fisher's exact test; Mean day of death (MDD) by Mann-Whitney U rank sum.

In data set [4] the test system is HSV-1. Kind of data set: microbe, parasite or virus in culture. It counts as cell-based.
Data set [5] relates to Mad-4 JCV. As to the kind of experiment: JCV (Mad-4) initial infection of SVG cells (in situ DNA hybridization, qPCR). The following applies: for decrease in percentage of cells containing JCV DNA: day 7.
Data set [6] can be described thus: SVG cell viability / cell number (MTS, alamar blue, hematoxylin). The following applies: human, SVG cells; Ara-C 20 μg/ml; read-out: decrease of cell viability (MTS). It counts as cell-based, human. The procedure:
(§1) Quantification of cell viability using the MTS [3-(4,5-dimethylthiazol-2-yl)-5-(3-carboxymethoxyphenyl)-2-(4-sulfophenyl)-2H-tetrazolium] assay is based on bioactivity of mitochondrial dehydrogenase in living cells, which converts colorless tetrazolium salt to a colored formazan. MTS assays were performed according to manufacturer's instructions (Promega, Madison Wis.). Briefly, culture medium was removed from cells and 50 μL of PBS was added into each well of a 96 well plate. Ten μL of MTS reagent were added to wells of cells, and to a well without cells to determine background. Mixtures were incubated at 37° C. for 2 hours and the absorbance was measured at 490 nm. Trypan blue staining was performed on identical cultures to correlate MTS values with cell viability. The final values indicated are the result from 3 replicates. The value for the non-treated control was set to 100% and all other values are represented as a percentage of the control. Alamar blue (AB) assay.
(§2) Quantification of cell viability using the alamar blue (AB) assay was performed according to the manufacturer's instructions (Invitrogen, Gaithersburg, Md.). Briefly, 10 μL of AB reagent was added to each well of a 96 well dish containing cells or without cells to determine background. Mixtures were incubated at 37° C. for 6 hours and the absorbance measured at 570 nm using 600 nm as a reference wavelength. The value for the non-treated control was set to 100% and all other values are represented as a percentage of the control.
(§3) Because cell density in cultures processed for in situ DNA hybridization could not be measured by MTS or AB assays, cell density was approximated in cell cultures processed by quantifying hematoxylin staining intensity. Coverslips containing cells were prepared for in situ DNA hybridization and co-stained with hematoxylin. Subsequently, each coverslip was scanned and the hematoxylin intensities quantified using ImageJ. To determine the total cell number per coverslip, images were acquired at 10 random positions at 100× magnification. Cells were counted throughout each image and the average cell number per slide was generated by averaging counts from the 10 images for each experimental group. Exactly 900 images at 100× magnification cover the surface of an 18 mm×18 mm coverslip.
(Alamar Blue is a resazurin reagent that responds to reducing activity.)

The test system of data set [7] is SVG cells. The description is as above. Type of data set: cell-based, human. The following applies: Ara-C 5 μg/ml. As to the method: as §1, §2, §3
Data set [8] in a line: Safety and pharmacokinetics of CMX001 in healthy volunteers. It counts as in vivo, human. The following applies: blood, Human, analyte = label. As to the method: An initial study was conducted to evaluate the safety and pharmacokinetics of CMX001 in healthy volunteers. The study consisted of a single dose arm (SD) and a multiple dose arm (MD). In the single dose arm 7 cohorts of 6 subjects were treated (4 subjects received active drug and 2 placebo). Enrollment was staggered as 2 subjects (one active, one placebo) followed by 4 subjects (Groups A and B). The estimated single doses for the two highest doses treated for a […] subject were 40 mg (0.6 mg/kg cohort 6) and 70 mg (1 mg/kg cohort 7). In the multiple dose arm, cohort 6MD received 0.1 mg/kg on Day 0, 6 and 12; Cohort 7MD received 0.2 mg/kg on Day 0, 6 and 12. Levels of cidofovir, CMX001 and CMX064 (major metabolite) were measured in blood and urine of subjects during the course of the study. Gastrointestinal (GI) monitoring of the subjects included (a) monitoring for clinical signs of GI adverse events, (b) monitoring for clinical symptoms using a visual Analog Scale, (c) monitoring for appetite loss/anorexia, nausea, vomiting, diarrhea, constipation and intestinal gas/bloating, (d) laboratory tests for fecal occult blood; serum electrolytes, urine specific gravity, BUN/creatinine ratio; serum albumin, and lipids, and (e) diagnostic studies (the Wireless capsule endoscopy (PillCam®, Given Imaging)).

The subject of data set [9] is BK Virus. Kind of data set: BK virus replication in RPTECs, viral DNA by qPCR after 5 days. It counts as cell-based. The conditions noted are these: Betapolyomavirus hominis, RPTEC. The procedure: To test the ability of CMX001 to inhibit replication of BK virus, stocks of BK virus were prepared in HFF cells and dilutions of the virus stocks were used to infect primary human renal tubular epithelial cells (RPTECs). Drug dilutions were then added to the wells containing the infected cells and the plates were incubated for 5 days. Total DNA was prepared from the plates and viral DNA was quantified by qPCR.
Background: Real-time PCR tracks product formation cycle by cycle.

Data set [10] deals with HCMV. Kind of data set: HCMV viral DNA accumulation in HFF cells, real time PCR, 7 days. The following applies: GCV 10 μM. It counts as cell-based.
The test system of data set [11] is HCMV (AD169). Kind of data set: HCMV real time array of viral transcripts. The conditions noted are these: CDV 50 μM, GCV 15 μM, CMX001 0.5 μM; ANOVA P<0.05. Type of data set: cell-based.
The test system of data set [12] is human PBMCs. As to the kind of experiment: Intracellular CDV-PP in human PBMCs. It counts as in vitro ADME. The procedure:
CMX001 increases cellular exposure to the active antiviral agent, cidofovir-diphosphate (CDV-PP). […] CDV-PP in PBMCs incubated for 48 hours with CMX001 or cidofovir.

Where [13] appears, read: JC polyomavirus, read-out: reduction of JCV DNA containing cells, normalized to cell viability.

Take `Nc1nc2c(ncn2COCCO)c(=O)[nH]1` [Acyclovir, acyclovir]: the IC50 in [1] is greater than 100 µM. Besides, the concentration giving a half-maximal response (EC50) in data set [2] (Human alphaherpesvirus 2, ACV resistant strain 11572) is greater than 100 µM; in data set [2] (Human alphaherpesvirus 2, ACV resistant strain 11680), 79 ± 10 µM; in [2] (Human alphaherpesvirus 2, ACV resistant strain 12247), greater than 100 µM; in data set [2] (Human alphaherpesvirus 2, ACV resistant strain AG-3) it was greater than 100 µM; in data set [2] (Human alphaherpesvirus 2, G (wild type), Table 9), 2.1 ± 0.99 µM; in data set [2] (Human alphaherpesvirus 2, strain G), 3.1 ± 3.5 µM. In addition, the EC50 in data set [2] (Human alphaherpesvirus 2, strain MS) is 2.2 ± 0.8 µM; in data set [4] (Human alphaherpesvirus 1, ACV resistant strain B-2006) it was greater than 100 µM; in data set [4] (Human alphaherpesvirus 1, ACV resistant strain DM2.1), greater than 100 µM; in data set [4] (Human alphaherpesvirus 1, ACV resistant strain PAAr5), 13.6 ± 2.7 µM; in [4] (Human alphaherpesvirus 1, F (wild type), Table 9), 1.9 ± 0.47 µM; in [4] (Human alphaherpesvirus 1, SC16, ACV resistant strain SC16-S1) it was greater than 100 µM. The EC50 in [4] (Human alphaherpesvirus 1, read-out: EC50 range, panel of wild-type and ACV-resistant isolates of HSV-1 and HSV-2) is no less than 2 µM; in data set [4] (Human alphaherpesvirus 1, strain F), 0.35 ± 0.2 µM; in [4] (Human alphaherpesvirus 1, strain HL-3), 3.8 ± 0.4 µM. In addition, the MDD amounted to 9.0 ± 1.6 in [3] (Acyclovir 3 mg/kg), 11.1 ± 2.4 in data set [3] (Acyclovir 10 mg/kg) and 10.7 ± 2.0 in data set [3] (Acyclovir 30 mg/kg). The “Mortality Number” value is on record as 15/15 in [3] (Acyclovir 3 mg/kg), 11/15 in data set [3] (Acyclovir 10 mg/kg) and 6/15 in [3] (Acyclovir 30 mg/kg). Besides, the entries for the “Mortality Percent” value in [3] (Acyclovir 3 mg/kg), in [3] (Acyclovir 10 mg/kg) and in data set [3] (Acyclovir 30 mg/kg) were 100%, 79% and 40%, respectively.

As to `Nc1ccn([C@@H]2O[C@H](CO)C(O)C2O)c(=O)n1` (stereo partly drawn) [Ara-C, Cytosine β-D-arabinofuranoside], the “decrease in percentage of cells containing JCV DNA” value in [5] (Ara-C 5 μg per mL) is listed as 25%. Besides, the “decrease in percentage of cells containing JCV DNA” value in [5] (Ara-C 20 μg per mL) is given as 83%. Also, in data set [5] (setting [13]), the inhibition at 5 µg/mL came out at 27% and the inhibition at 20 µg/mL was found to be 78%. Further, the cytotoxicity at 20 μg/ml in data set [6] was 21%. Moreover, in data set [7], the “cytotoxicity (MTS)” value is “did not cause cytotoxicity”.

Regarding `Nc1ccn(C[C@@H](CO)OCP(=O)(O)OCCCOCCCC(=O)O)c(=O)n1` [CMX064], the AUC in [8] (0.05 mg/kg, CMX001 0.050 mg/kg) amounted to 39 ng·h/mL; in data set [8] (0.1 mg/kg, CMX001 0.100 mg/kg), 34 ng·h/mL; in [8] (0.2 mg/kg, CMX001 0.200 mg/kg), 39.7 ng·h/mL; in data set [8] (0.4 mg/kg, CMX001 0.400 mg/kg), 203 ng·h/mL; in [8] (0.6 mg/kg, CMX001 0.600 mg/kg), 187 ng·h/mL; in [8] (CMX001 0.025 mg/kg), 11.8 ng·h/mL. For the same molecule, the Cmax in data set [8] (0.05 mg/kg, CMX001 0.050 mg/kg) was 4.63 ng/mL; in [8] (0.1 mg/kg, CMX001 0.100 mg/kg), 2.85 ng/mL; in data set [8] (0.2 mg/kg, CMX001 0.200 mg/kg), 4.55 ng/mL; in data set [8] (0.4 mg/kg, CMX001 0.400 mg/kg), 23 ng/mL; in data set [8] (0.6 mg/kg, CMX001 0.600 mg/kg) it was 24.9 ng/mL; in data set [8] (CMX001 0.025 mg/kg), 1.69 ng/mL.

As to `Nc1nc(O)c2ncn(COC(CO)CO)c2n1` [ganciclovir, reference compound], the EC50 was 89 µM in [9] (Virus Dilution 1:10), greater than 100 µM in [9] (Virus Dilution 1:50) and 70.8 µM in data set [9] (Virus Dilution 1:100). Also, the IC50 in data set [1] is 4.5 to 33 µM. In addition, the “fold reduction of accumulation of viral DNA” value in [10] is on record as “less than 10 fold”. Also, the “levels of viral transcripts” value in data set [11] was “Significant reductions in levels of most viral transcripts”.

On to cidofovir diphosphate [CDV-PP], for which the “t1/2 for CDV-PP” value turned out to be 156 h in [12] (PBMCs incubated 48 hours with CMX001 or cidofovir (FIG. 40)), 156 h in data set [12] (incubation with CMX001 for 1 hour (FIG. 42)) and 93.6 h in data set [12] (incubation with CMX001 for 48 hours (FIG. 41)).

In general, IC50 refers to the concentration at which inhibition is half-maximal. For orientation: EC50 means the midpoint of the concentration-response curve. Broadly, the AUC is concentration integrated over time. Low values mean less exposure, high ones more exposure. As a reminder, the Cmax is the maximum level reached in the sampled fluid or tissue.
